Key:
Test in all cases: Post-emergence efficacy, glasshouse spray test
Type in all cases: in vivo
[1] = test system: Digitaria sanguinalis (DIGSA); settings: Digitaria sanguinalis, post-emergence, 312 h, evaluated after 13 days, read-out: Control of weed species DIGSA after post-emergence application (100=total damage to plant; 0=no damage to plant); for pest or weed control at 500 g/ha: application rate 500 g/Ha; for pest or weed control at 1000 g/ha: application rate 1000 g/Ha
Summary of the method: (§1)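 Visual damage score 13 days after spraying, 0 (no damage) to 100 (plant killed). Pot-grown plants were treated at 14 days post-sowing with aqueous spray of compound formulated in acetone/IF50, diluted with 0.25% or 1% Empicol ESC70 plus 1% ammonium sulphate; glasshouse kept at 24/16 °C, 14 h light, 65% RH.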

[2] = test system: Lolium perenne (LOLPE); settings: Lolium perenne, post-emergence, 312 h, evaluated after 13 days, read-out: Control of weed species LOLPE after post-emergence application (100=total damage to plant; 0=no damage to plant); for pest or weed control at 500 g/ha: application rate 500 g/Ha; for pest or weed control at 1000 g/ha: application rate 1000 g/Ha
Summary of the method: as §1

[3] = test system: Echinochloa crus-galli (ECHCG); settings: Echinochloa crus-galli, post-emergence, 312 h, evaluated after 13 days, read-out: Control of weed species ECHCG after post-emergence application (100=total damage to plant; 0=no damage to plant); for pest or weed control at 500 g/ha: application rate 500 g/Ha; for pest or weed control at 1000 g/ha: application rate 1000 g/Ha
Summary of the method: as §1

[4] = test system: Euphorbia heterophylla (EPHHL); settings: Euphorbia heterophylla, post-emergence, 312 h, evaluated after 13 days, read-out: Control of weed species EPHHL after post-emergence application (100=total damage to plant; 0=no damage to plant); for pest or weed control at 500 g/ha: application rate 500 g/Ha; for pest or weed control at 1000 g/ha: application rate 1000 g/Ha
Summary of the method: as §1

[5] = test system: Amaranthus palmeri (AMAPA); settings: Amaranthus palmeri, post-emergence, 312 h, evaluated after 13 days, read-out: Control of weed species AMAPA after post-emergence application (100=total damage to plant; 0=no damage to plant); for pest or weed control at 500 g/ha: application rate 500 g/Ha; for pest or weed control at 1000 g/ha: application rate 1000 g/Ha
Summary of the method: as §1

[6] = test system: Eleusine indica (ELEIN); settings: Eleusine indica, post-emergence, 312 h, evaluated after 13 days, read-out: Control of weed species ELEIN after post-emergence application (100=total damage to plant; 0=no damage to plant); for pest or weed control at 500 g/ha: application rate 500 g/Ha; for pest or weed control at 1000 g/ha: application rate 1000 g/Ha
Summary of the method: as §1

[7] = test system: Ipomoea hederacea (IPOHE); settings: Ipomoea hederacea, post-emergence, 312 h, evaluated after 13 days, read-out: Control of weed species IPOHE after post-emergence application (100=total damage to plant; 0=no damage to plant); for pest or weed control at 500 g/ha: application rate 500 g/Ha; for pest or weed control at 1000 g/ha: application rate 1000 g/Ha
Summary of the method: as §1

[8] = test system: Chenopodium album (CHEAL); settings: Chenopodium album, post-emergence, 312 h, evaluated after 13 days, read-out: Control of weed species CHEAL after post-emergence application (100=total damage to plant; 0=no damage to plant); for pest or weed control at 500 g/ha: application rate 500 g/Ha; for pest or weed control at 1000 g/ha: application rate 1000 g/Ha
Summary of the method: as §1

[9] = test system: Setaria faberi (SETFA); settings: Setaria faberi, post-emergence, 312 h, evaluated after 13 days, read-out: Control of weed species SETFA after post-emergence application (100=total damage to plant; 0=no damage to plant); for pest or weed control at 500 g/ha: application rate 500 g/Ha; for pest or weed control at 1000 g/ha: application rate 1000 g/Ha
Summary of the method: as §1

## CC(=O)Nc1cccc2cc[n+](CCS(=O)(=O)[O-])nc12 [Compound A107, 2-(8-acetamidocinnolin-2-ium-2-yl)ethanesulfonate]
[1]; application rate 130 g/Ha
  pest or weed control at 130 g/ha: 70%
[2]; application rate 130 g/Ha
  pest or weed control at 130 g/ha: 40%
[3]; application rate 130 g/Ha
  pest or weed control at 130 g/ha: 80%
[4]; application rate 130 g/Ha
  pest or weed control at 130 g/ha: 50%
[5]; application rate 130 g/Ha
  pest or weed control at 130 g/ha: 60%
[6]; application rate 130 g/Ha
  pest or weed control at 130 g/ha: 40%
[7]; application rate 130 g/Ha
  pest or weed control at 130 g/ha: 40%
[8]; application rate 130 g/Ha
  pest or weed control at 130 g/ha: 40%
[9]; application rate 130 g/Ha
  pest or weed control at 130 g/ha: 70%

## COC(=O)c1ccc2cc[n+](CCS(=O)(=O)[O-])nc2c1 [Compound A108]
[1]
  pest or weed control at 500 g/ha: 70%
[2]
  pest or weed control at 500 g/ha: 10%
[3]
  pest or weed control at 500 g/ha: 20%
[4]
  pest or weed control at 500 g/ha: 50%
[5]
  pest or weed control at 500 g/ha: 20%
[6]
  pest or weed control at 500 g/ha: 30%
[7]
  pest or weed control at 500 g/ha: 10%
[8]
  pest or weed control at 500 g/ha: 40%
[9]
  pest or weed control at 500 g/ha: 10%

## COC(=O)c1cccc2cc[n+](CCS(=O)(=O)[O-])nc12 [Compound A109, 2-(8-methoxycarbonylcinnolin-2-ium-2-yl)ethanesulfonate]
[1]
  pest or weed control at 500 g/ha: 10%
[2]
  pest or weed control at 500 g/ha: 10%
[3]
  pest or weed control at 500 g/ha: 30%
[4]
  pest or weed control at 500 g/ha: 30%
[5]
  pest or weed control at 500 g/ha: 40%
[6]
  pest or weed control at 500 g/ha: 10%
[7]
  pest or weed control at 500 g/ha: 10%
[8]
  pest or weed control at 500 g/ha: 20%
[9]
  pest or weed control at 500 g/ha: 10%

## N#Cc1cccc2cc[n+](CCS(=O)(=O)[O-])nc12 [Compound A110, 2-(8-cyanocinnolin-2-ium-2-yl)ethanesulfonate]
[1]
  pest or weed control at 500 g/ha: 20%
[2]
  pest or weed control at 500 g/ha: 0%
[3]
  pest or weed control at 500 g/ha: 20%
[4]
  pest or weed control at 500 g/ha: 60%
[5]
  pest or weed control at 500 g/ha: 70%
[6]
  pest or weed control at 500 g/ha: 20%
[7]
  pest or weed control at 500 g/ha: 40%
[8]
  pest or weed control at 500 g/ha: 30%
[9]
  pest or weed control at 500 g/ha: 20%

## O=S(=O)([O-])OCC[n+]1nc2ccccc2cc1Cl [Compound A111]
[1]
  pest or weed control at 1000 g/ha: 10%
[2]
  pest or weed control at 1000 g/ha: 0%
[3]
  pest or weed control at 1000 g/ha: 0%
[4]
  pest or weed control at 1000 g/ha: 30%
[5]
  pest or weed control at 1000 g/ha: 0%
[6]
  pest or weed control at 1000 g/ha: 20%
[7]
  pest or weed control at 1000 g/ha: 0%
[8]
  pest or weed control at 1000 g/ha: 0%
[9]
  pest or weed control at 1000 g/ha: 0%

## O=S(=O)(O)CC[n+]1ccc2cc(-c3ccccc3)ccc2n1 [Compound A112]
[1]
  pest or weed control at 1000 g/ha: 30%
[2]
  pest or weed control at 1000 g/ha: 10%
[3]
  pest or weed control at 1000 g/ha: 10%
[4]
  pest or weed control at 1000 g/ha: 20%
[5]
  pest or weed control at 1000 g/ha: 10%
[6]
  pest or weed control at 1000 g/ha: 30%
[7]
  pest or weed control at 1000 g/ha: 10%
[8]
  pest or weed control at 1000 g/ha: 30%
[9]
  pest or weed control at 1000 g/ha: 20%

## CC(C)(C[n+]1ccc2ccccc2n1)C(=O)O [Compound A113, 3-cinnolin-2-ium-2-yl-2,2-dimethyl-propanoic Acid 2,2,2-trifluoroacetate]
[1]
  pest or weed control at 500 g/ha: 30%
[2]
  pest or weed control at 500 g/ha: 20%
[3]
  pest or weed control at 500 g/ha: 40%
[4]
  pest or weed control at 500 g/ha: 10%
[5]
  pest or weed control at 500 g/ha: 10%
[6]
  pest or weed control at 500 g/ha: 30%
[7]
  pest or weed control at 500 g/ha: 10%
[8]
  pest or weed control at 500 g/ha: 10%
[9]
  pest or weed control at 500 g/ha: 20%

## O=C(NC(C[n+]1ccc2ccccc2n1)C(=O)O)OCc1ccccc1 (stereo not drawn) [Compound A114]
[1]
  pest or weed control at 500 g/ha: 20%
[2]
  pest or weed control at 500 g/ha: 10%
[3]
  pest or weed control at 500 g/ha: 20%
[4]
  pest or weed control at 500 g/ha: 50%
[5]
  pest or weed control at 500 g/ha: 50%
[6]
  pest or weed control at 500 g/ha: 30%
[7]
  pest or weed control at 500 g/ha: 30%
[8]
  pest or weed control at 500 g/ha: 40%
[9]
  pest or weed control at 500 g/ha: 20%

## CC(CC(=O)O)[n+]1ccc2ccccc2n1 (stereo not drawn) [Compound A115, 3-cinnolin-2-ium-2-ylbutanoic Acid 2,2,2-trifluoroacetate]
[1]
  pest or weed control at 500 g/ha: 60%
[2]
  pest or weed control at 500 g/ha: 20%
[3]
  pest or weed control at 500 g/ha: 20%
[4]
  pest or weed control at 500 g/ha: 20%
[5]
  pest or weed control at 500 g/ha: 100%
[6]
  pest or weed control at 500 g/ha: 60%
[7]
  pest or weed control at 500 g/ha: 20%
[8]
  pest or weed control at 500 g/ha: 40%
[9]
  pest or weed control at 500 g/ha: 30%

## CC(C(=O)OC(C)(C)C)[n+]1ccc2ccccc2n1 (stereo not drawn) [Compound A116]
[1]
  pest or weed control at 500 g/ha: 40%
[2]
  pest or weed control at 500 g/ha: 20%
[3]
  pest or weed control at 500 g/ha: 30%
[4]
  pest or weed control at 500 g/ha: 30%
[5]
  pest or weed control at 500 g/ha: 60%
[6]
  pest or weed control at 500 g/ha: 30%
[7]
  pest or weed control at 500 g/ha: 10%
[8]
  pest or weed control at 500 g/ha: 50%
[9]
  pest or weed control at 500 g/ha: 30%

## Cc1cc(C)c2n[n+](CCO)cc(C)c2c1 [Compound A117]
[1]
  pest or weed control at 1000 g/ha: 20%
[2]
  pest or weed control at 1000 g/ha: 10%
[3]
  pest or weed control at 1000 g/ha: 20%
[4]
  pest or weed control at 1000 g/ha: 20%
[5]
  pest or weed control at 1000 g/ha: 30%
[6]
  pest or weed control at 1000 g/ha: 60%
[7]
  pest or weed control at 1000 g/ha: 20%
[8]
  pest or weed control at 1000 g/ha: 20%
[9]
  pest or weed control at 1000 g/ha: 30%

## Cc1c[n+](CCO)nc2ccccc12 [Compound A118]
[1]
  pest or weed control at 1000 g/ha: 20%
[2]
  pest or weed control at 1000 g/ha: 10%
[3]
  pest or weed control at 1000 g/ha: 10%
[4]
  pest or weed control at 1000 g/ha: 20%
[5]
  pest or weed control at 1000 g/ha: 10%
[6]
  pest or weed control at 1000 g/ha: 20%
[7]
  pest or weed control at 1000 g/ha: 10%
[8]
  pest or weed control at 1000 g/ha: 10%
[9]
  pest or weed control at 1000 g/ha: 10%

— patent US20220046923A1, “HERBICIDAL CINNOLINIUM COMPOUNDS” (SYNGENTA CROP PROTECTION AG, priority 2018, published 2022)
